Earlier results on five compounds are cited in patent US20230240962A1, “METHOD FOR DYEING KERATINOUS MATERIAL, COMPRISING THE USE OF AN ORGANOSILICON COMPOUND, AN ALKYL(POLY)GLYCOSIDE, A DYEING COMPOUND AND A POST-TREATMENT AGENT” (Henkel AG & Co. KGaA, priority 2020, published 2023).

For the data set the following is noted: 25° C.

In the case of `O=C([O-])c1c(Cl)c(Cl)c(Cl)c(Cl)c1-c1c2c(Br)cc(=O)c(Br)c-2oc2c(Br)c(O)cc(Br)c12.O=C([O-])c1c(Cl)c(Cl)c(Cl)c(Cl)c1-c1c2c(Br)cc(=O)c(Br)c-2oc2c(Br)c(O)cc(Br)c12.[Na+].[Na+]` [Acid Red 92, disodium salt of 3,4,5,6-tetrachloro-2-(1,4,5,8-tetrabromo-6-hydroxy-3-oxoxanthen-9-yl)benzoic acid], the solubility in water entry is reported as “greater than 10 g/L”. With `CCN(Cc1cccc(S(=O)(=O)[O-])c1)c1ccc(C(=C2C=CC(=[N+](CC)Cc3cccc(S(=O)(=O)[O-])c3)C=C2)c2ccccc2S(=O)(=O)[O-])cc1.[Na+].[Na+]` [Acid Blue 9], the solubility in water entry was “more than 20 wt. %”. Regarding `O=C([O-])C1=NN(c2ccc(S(=O)(=O)[O-])cc2)C(=O)C1N=Nc1ccc(S(=O)(=O)[O-])cc1.[Na+].[Na+].[Na+]` (centres unmarked) [Acid Yellow 23, trisodium salt of 4,5-dihydro-5-oxo-1-(4-sulfophenyl)-4-((4-sulfophenyl)azo)-1H-pyrazole-3-carboxylic acid], the “solubility in water (in words)” value is on record as “highly soluble”.

Take `O=S(=O)([O-])c1ccc(N=Nc2c(O)ccc3ccccc23)cc1.[Na+]` [Acid Orange 7, sodium salt of 4-[(2-hydroxy-1-naphthyl)azo]benzene sulphonate]: the solubility in water entry is recorded as “more than 7 g/L”.

Regarding `Nc1cc(S(=O)(=O)[O-])cc2cc(S(=O)(=O)[O-])c(N=Nc3ccccc3)c(O)c12.[Na+].[Na+]` [Acid Red 33, disodium salt of 5-amino-4-hydroxy-3-(phenylazo)-naphthalene-2,7-disulphonate], the solubility in water is 2500 µg/mL.
